Assay: xn = mol fraction of the nth substance listed
Settings: Liquid; for mass density: Vibrating tube method; for viscosity: Vibrating wire viscometry

O=C=O [carbon dioxide] + O
Settings | mass density [kg/m3] | viscosity [mPa·s]
274.72 K, 30290 kPa, x1 = 0.0271 | 1030.1 | –
274.72 K, 50410 kPa, x1 = 0.0271 | 1038.8 | –
274.72 K, 70530 kPa, x1 = 0.0271 | 1047.2 | –
274.72 K, 100770 kPa, x1 = 0.0271 | 1059.2 | –
274.73 K, 15010 kPa, x1 = 0.0086 | 1012 | –
274.73 K, 30110 kPa, x1 = 0.0086 | 1019 | –
274.73 K, 50240 kPa, x1 = 0.0086 | 1028.1 | –
274.73 K, 70360 kPa, x1 = 0.0086 | 1036.8 | –
274.73 K, 100670 kPa, x1 = 0.0086 | 1049.3 | –
274.77 K, 15080 kPa, x1 = 0.0168 | 1017.3 | –
274.77 K, 30190 kPa, x1 = 0.0168 | 1024.1 | –
274.77 K, 50310 kPa, x1 = 0.0168 | 1033 | –
274.77 K, 70430 kPa, x1 = 0.0168 | 1041.6 | –
274.77 K, 100710 kPa, x1 = 0.0168 | 1053.9 | –
294.27 K, 15100 kPa, x1 = 0.0168 | – | 1.049
294.27 K, 30200 kPa, x1 = 0.0168 | – | 1.044
294.27 K, 50200 kPa, x1 = 0.0168 | – | 1.044
294.27 K, 70200 kPa, x1 = 0.0168 | – | 1.041
294.27 K, 96300 kPa, x1 = 0.0168 | – | 1.046
294.3 K, 15100 kPa, x1 = 0.0086 | – | 1.013
294.3 K, 30200 kPa, x1 = 0.0086 | – | 1.014
294.3 K, 50300 kPa, x1 = 0.0086 | – | 1.012
294.3 K, 70300 kPa, x1 = 0.0086 | – | 1.008
294.3 K, 96400 kPa, x1 = 0.0086 | – | 1.008
294.31 K, 30300 kPa, x1 = 0.0271 | – | 1.096
294.31 K, 50300 kPa, x1 = 0.0271 | – | 1.095
294.31 K, 70400 kPa, x1 = 0.0271 | – | 1.097
294.31 K, 96500 kPa, x1 = 0.0271 | – | 1.1
296.17 K, 15100 kPa, x1 = 0.0086 | 1008.6 | –
296.17 K, 30200 kPa, x1 = 0.0086 | 1015 | –
296.17 K, 50260 kPa, x1 = 0.0086 | 1023.4 | –
296.17 K, 70330 kPa, x1 = 0.0086 | 1031.4 | –
296.17 K, 100650 kPa, x1 = 0.0086 | 1042.9 | –
296.18 K, 30250 kPa, x1 = 0.0271 | 1025.3 | –
296.18 K, 50360 kPa, x1 = 0.0271 | 1033.4 | –
296.18 K, 70440 kPa, x1 = 0.0271 | 1041.2 | –
296.18 K, 100760 kPa, x1 = 0.0271 | 1052.6 | –
296.19 K, 15070 kPa, x1 = 0.0168 | 1013.3 | –
296.19 K, 30170 kPa, x1 = 0.0168 | 1019.7 | –
296.19 K, 50300 kPa, x1 = 0.0168 | 1027.9 | –
296.19 K, 70410 kPa, x1 = 0.0168 | 1035.9 | –
296.19 K, 100730 kPa, x1 = 0.0168 | 1047.3 | –
322.91 K, 15000 kPa, x1 = 0.0168 | – | 0.568
322.91 K, 30100 kPa, x1 = 0.0168 | – | 0.573
322.91 K, 50200 kPa, x1 = 0.0168 | – | 0.578
322.91 K, 70200 kPa, x1 = 0.0168 | – | 0.584
322.91 K, 96200 kPa, x1 = 0.0168 | – | 0.592
322.93 K, 15000 kPa, x1 = 0.0086 | – | 0.56
322.93 K, 30100 kPa, x1 = 0.0086 | – | 0.564
322.93 K, 50200 kPa, x1 = 0.0086 | – | 0.568
322.93 K, 70200 kPa, x1 = 0.0086 | – | 0.573
322.93 K, 96300 kPa, x1 = 0.0086 | – | 0.582
323.12 K, 70400 kPa, x1 = 0.0271 | – | 0.606
323.12 K, 96500 kPa, x1 = 0.0271 | – | 0.615
323.43 K, 15060 kPa, x1 = 0.0168 | 1002.5 | –
323.43 K, 30180 kPa, x1 = 0.0168 | 1008.8 | –
323.43 K, 50300 kPa, x1 = 0.0168 | 1016.9 | –
323.43 K, 70420 kPa, x1 = 0.0168 | 1024.6 | –
323.43 K, 70460 kPa, x1 = 0.0271 | 1029.6 | –
323.43 K, 100720 kPa, x1 = 0.0168 | 1035.7 | –
323.43 K, 100780 kPa, x1 = 0.0271 | 1040.7 | –
323.45 K, 15020 kPa, x1 = 0.0086 | 998.4 | –
323.45 K, 30130 kPa, x1 = 0.0086 | 1004.7 | –
323.45 K, 50250 kPa, x1 = 0.0086 | 1012.8 | –
323.45 K, 70360 kPa, x1 = 0.0086 | 1020.6 | –
323.45 K, 100720 kPa, x1 = 0.0086 | 1031.6 | –
348.32 K, 15050 kPa, x1 = 0.0086 | 984.8 | –
348.32 K, 30150 kPa, x1 = 0.0086 | 991.3 | –
348.32 K, 50270 kPa, x1 = 0.0086 | 999.5 | –
348.32 K, 70370 kPa, x1 = 0.0086 | 1007.3 | –
348.32 K, 100710 kPa, x1 = 0.0086 | 1018.6 | –
348.33 K, 70580 kPa, x1 = 0.0271 | 1015.3 | –
348.33 K, 100780 kPa, x1 = 0.0271 | 1026.8 | –
348.38 K, 30200 kPa, x1 = 0.0168 | 994.9 | –
348.38 K, 50320 kPa, x1 = 0.0168 | 1003.2 | –
348.38 K, 70450 kPa, x1 = 0.0168 | 1011.1 | –
348.38 K, 100740 kPa, x1 = 0.0168 | 1022.4 | –
373.03 K, 30100 kPa, x1 = 0.0168 | – | 0.2932
373.03 K, 50200 kPa, x1 = 0.0168 | – | 0.2989
373.03 K, 70200 kPa, x1 = 0.0168 | – | 0.304
373.03 K, 96200 kPa, x1 = 0.0168 | – | 0.3111
373.13 K, 15000 kPa, x1 = 0.0086 | – | 0.286
373.13 K, 30100 kPa, x1 = 0.0086 | – | 0.291
373.13 K, 50200 kPa, x1 = 0.0086 | – | 0.297

— the NIST ThermoML archive (doi:10.1021/je5009125)
